Measured values: US20120295349A1, “MAMMAL DEDICATED CELL LINE FROM HUMAN HEPATOCELLULAR CARCINOMA CELL” (Institute of Nuclear Energy Research Atomic Energy Council, …, priority 2009, published 2012)

Experiments:
Format in all cases: cell-based, human
[1] = test system: HepG2 NF-κB/Luc/sr39tk cells; assay: Cytotoxic effect of GCV on HepG2 NF-κB/Luc/sr39tk cells (WST-1 cell survival); settings: GCV 0.001-500 μM, 96 h
Protocol: HepG2 NF-κB/luc/sr39tk was cultured at 3000 cells/well in 96 well plate format to attach the cells onto the plate, then drug-treated for 48 h with different concentrations of GCV at 0.001, 0.01, 0.1, 1, 50, 100 and 500 μM respectively, and then treated with fresh culture media containing GCV drug, and after 96 h of experiment, the culture media containing GCV drug was removed, then chromogenic reaction was carried out with WST-1 at 37° C. for 2 h, and finally analyzed by enzyme-linked immunosorbent assay (ELISA) at wavelengths of 450 nm and 620 nm respectively and plotted to obtain cell survival rate for calculation of cytotoxic effect of drug.

[2] = test system: HepG2 NF-κB/Luc/sr39tk cells; assay: 131I-FIAU uptake experiment in co-transformed HepG2 NF-κB/Luc/sr39tk cells; settings: reacted 2 h
Protocol: (§1) This experiment is provided to analyze uptake of 131I-FIAU drug by HepG2 NF-κB/Luc/sr39tk transformed cells. HepG2 NF-κB/Luc/sr39tk transformed cells were cultured overnight in a 6-well plate at 1×10^6 cells/well to attach the cells onto the plate. Then, 1 ml/well of labeled ^131I-FIAU was added into the cells and reacted for 2 h, and then the cells was washed with ice-cold PBS to quench the drug reaction, and detected for radioactivity. FIG. 4 is uptake effect of ^131I-FIAU in HepG2 NF-κB/Luc/sr39tk cell, in which X axis represents different transformed cell line; and Y axis is uptake amount of ^131I-FIAU per 0.1 million cells.

HepG2 NF-κB/Luc cells = assay: 131I-FIAU uptake experiment in HepG2 NF-κB/Luc cells; settings: reacted 2 h
Protocol: as §1

HepG2 cells = assay: 131I-FIAU uptake experiment in HepG2 cells; settings: reacted 2 h
Protocol: as §1

SMILES	cytotoxic effect (cell survival rate) compared with control group (HepG2) ([1]; 1—18 cell line)	cytotoxic effect (cell survival rate) compared with control group (HepG2) ([1]; 2—24 cell line)	uptake amount of 131I-FIAU per 0.1 million cells ([2]; 1—17 cell line)	uptake amount of 131I-FIAU per 0.1 million cells ([2]; 1—18 cell line)	uptake amount of 131I-FIAU per 0.1 million cells ([2]; 1—34 cell line)	uptake amount of 131I-FIAU per 0.1 million cells ([2]; 2—24 cell line)	uptake amount of 131I-FIAU per 0.1 million cells ([2]; 2—27 cell line)	uptake efficiency for 131I-FIAU (HepG2 NF-κB/Luc cells)	uptake efficiency for 131I-FIAU (HepG2 cells)
Nc1nc(O)c2ncn(COC(CO)CO)c2n1 [GCV, ganciclovir]	obvious cytotoxic effect	obvious cytotoxic effect							
O=c1[nH]c(=O)n([C@@H]2O[C@H](CO)[C@@H](O)[C@@H]2F)cc1[131I] [131I-FIAU]			20.1±0.41%	41.5±1.00%	27.2±1.07%	22.9±0.68%	12.9±0.45%	very low uptake efficiency	very low uptake efficiency
